Experimental data as given in patent US7989428B2, “Combined telomerase inhibitor and gemcitabine for the treatment of cancer” (Geron Corporation, priority 2006, dated 2011).

Test system: A549 tumor cells
Experiment: A549 subcutaneous mouse xenograft model, GRN163L and/or gemcitabine
Type: in vivo, mice
Conditions: A549 s.c. xenograft, 60 days; gemcitabine 100 mg/kg IP, GRN163L 15 mg/kg IP
Description: In one exemplary method, gemcitabine is administered in combination with a telomerase-inhibitor oligonucleotide targeted against hTR. […] Groups of 10 mice each were treated in accordance with one of three protocols: (1) Gemcitabine (100 mg/kg, IP) was administered 2 times/week for the first 1.5 weeks, then once weekly for the remainder of the study. […] (3) The two agents were administered together according to the individual-agent protocols.

Cl.Nc1ccn([C@@H]2O[C@H](CO)[C@@H](O)C2(F)F)c(=O)n1 (single isomer, unassigned) [gemcitabine, 2′-deoxy-2′,2′-difluorocytidine monohydrochloride ((beta)-isomer)]
tumor growth during the treatment period: effective in preventing tumor growth
